Results reported in US10479795B2 (Incyte Corporation, priority 2016, dated 2019).
Counter-ions that a name gives are not always drawn. Like-named read-outs stand apart in the source and are kept apart here.

Key:
[1] = test system: Phosphorylated Ribosomal Protein S6 (RPS6); experiment: THP-1 RPS6 ELISA Assay; format: cell-based, Human; details: THP-1 cells, read-out: PI3Kγ_THP1_RPS6_ELISA IC50
In short: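 IC50 values come from a curve of percent inhibition against log compound concentration, using phospho-RPS6 ELISA (450 nm) on THP-1 lysates. Cells were serum-starved overnight, exposed to compound for 2 h at 37 °C, then challenged 15 min with 10 nM MCP-1.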

[2] = biological target: PI3Kδ (p110δ/p85α) Recombinant Human Protein (Homo sapiens (Human), UniProt O00329); experiment: PI3Kδ Scintillation Proximity Assay; format: biochemical
Chain of PI3Kδ (p110δ/p85α) Recombinant Human Protein (O00329 whole entry): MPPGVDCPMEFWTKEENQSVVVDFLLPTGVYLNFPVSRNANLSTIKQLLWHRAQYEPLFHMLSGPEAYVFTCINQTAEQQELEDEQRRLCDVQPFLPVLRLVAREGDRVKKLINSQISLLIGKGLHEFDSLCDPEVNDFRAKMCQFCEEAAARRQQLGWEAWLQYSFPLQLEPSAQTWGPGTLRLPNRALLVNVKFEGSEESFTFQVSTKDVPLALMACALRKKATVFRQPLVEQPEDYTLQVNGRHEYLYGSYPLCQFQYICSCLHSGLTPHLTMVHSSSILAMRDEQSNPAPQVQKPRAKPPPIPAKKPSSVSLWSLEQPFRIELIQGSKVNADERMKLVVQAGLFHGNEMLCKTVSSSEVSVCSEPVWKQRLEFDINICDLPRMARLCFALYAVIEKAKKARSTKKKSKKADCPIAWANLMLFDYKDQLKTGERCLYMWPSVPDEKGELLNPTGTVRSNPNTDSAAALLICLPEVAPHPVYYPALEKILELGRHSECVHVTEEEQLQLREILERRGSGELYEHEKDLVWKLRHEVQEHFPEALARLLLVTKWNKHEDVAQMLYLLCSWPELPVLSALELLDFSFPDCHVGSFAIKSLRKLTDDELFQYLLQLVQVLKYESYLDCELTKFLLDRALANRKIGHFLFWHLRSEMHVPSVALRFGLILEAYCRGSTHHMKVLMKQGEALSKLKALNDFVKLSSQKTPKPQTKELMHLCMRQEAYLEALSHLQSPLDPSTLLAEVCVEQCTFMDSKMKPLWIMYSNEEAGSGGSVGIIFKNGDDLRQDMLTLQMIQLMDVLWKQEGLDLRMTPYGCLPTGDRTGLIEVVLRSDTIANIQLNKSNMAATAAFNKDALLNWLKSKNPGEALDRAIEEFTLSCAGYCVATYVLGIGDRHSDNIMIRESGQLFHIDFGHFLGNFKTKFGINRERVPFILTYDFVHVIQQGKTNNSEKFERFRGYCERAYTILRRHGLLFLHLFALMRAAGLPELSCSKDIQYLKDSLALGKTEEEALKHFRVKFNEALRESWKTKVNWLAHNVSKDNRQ
Chain of PI3Kδ (p110δ/p85α) Recombinant Human Protein (P27986 whole entry partner): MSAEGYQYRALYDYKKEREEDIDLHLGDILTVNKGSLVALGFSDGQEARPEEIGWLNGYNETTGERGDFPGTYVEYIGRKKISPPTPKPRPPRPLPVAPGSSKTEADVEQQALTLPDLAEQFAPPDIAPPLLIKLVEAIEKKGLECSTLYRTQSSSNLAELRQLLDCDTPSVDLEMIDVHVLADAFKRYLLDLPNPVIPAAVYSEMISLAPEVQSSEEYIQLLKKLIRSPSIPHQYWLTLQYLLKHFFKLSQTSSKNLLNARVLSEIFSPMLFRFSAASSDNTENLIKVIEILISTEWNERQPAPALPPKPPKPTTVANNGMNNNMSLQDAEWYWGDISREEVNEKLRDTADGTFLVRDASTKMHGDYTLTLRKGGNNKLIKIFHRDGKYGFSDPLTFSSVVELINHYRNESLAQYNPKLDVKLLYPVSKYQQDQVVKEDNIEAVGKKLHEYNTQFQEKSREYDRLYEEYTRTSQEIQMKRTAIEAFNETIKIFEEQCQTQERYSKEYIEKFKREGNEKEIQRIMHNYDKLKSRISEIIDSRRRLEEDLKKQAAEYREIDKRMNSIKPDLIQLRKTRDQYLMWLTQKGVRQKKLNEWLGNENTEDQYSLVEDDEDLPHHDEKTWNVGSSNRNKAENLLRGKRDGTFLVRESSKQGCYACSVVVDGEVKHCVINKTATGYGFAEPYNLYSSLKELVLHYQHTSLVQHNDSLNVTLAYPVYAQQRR
In short: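 IC50 was fitted to percent solvent-control activity from SPA scintillation counts after WGA bead capture of 33P-labelled lipid product. Reaction: 120 min, room temperature, 3.4 nM p110δ/p85α, 20 μM PIP2, 2 μM ATP with tracer, MOPS pH 6.7 buffer containing MgCl2, DTT, CHAPS, 2% DMSO.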

[3] = biological target: PI3Kγ (p110γ) Recombinant Human Protein (Homo sapiens (Human), UniProt P48736); experiment: PI3K-γ Scintillation Proximity Assay; format: biochemical; details: read-out: PI3Kγ IC50
Chain of PI3Kγ (p110γ) Recombinant Human Protein (P48736 whole entry): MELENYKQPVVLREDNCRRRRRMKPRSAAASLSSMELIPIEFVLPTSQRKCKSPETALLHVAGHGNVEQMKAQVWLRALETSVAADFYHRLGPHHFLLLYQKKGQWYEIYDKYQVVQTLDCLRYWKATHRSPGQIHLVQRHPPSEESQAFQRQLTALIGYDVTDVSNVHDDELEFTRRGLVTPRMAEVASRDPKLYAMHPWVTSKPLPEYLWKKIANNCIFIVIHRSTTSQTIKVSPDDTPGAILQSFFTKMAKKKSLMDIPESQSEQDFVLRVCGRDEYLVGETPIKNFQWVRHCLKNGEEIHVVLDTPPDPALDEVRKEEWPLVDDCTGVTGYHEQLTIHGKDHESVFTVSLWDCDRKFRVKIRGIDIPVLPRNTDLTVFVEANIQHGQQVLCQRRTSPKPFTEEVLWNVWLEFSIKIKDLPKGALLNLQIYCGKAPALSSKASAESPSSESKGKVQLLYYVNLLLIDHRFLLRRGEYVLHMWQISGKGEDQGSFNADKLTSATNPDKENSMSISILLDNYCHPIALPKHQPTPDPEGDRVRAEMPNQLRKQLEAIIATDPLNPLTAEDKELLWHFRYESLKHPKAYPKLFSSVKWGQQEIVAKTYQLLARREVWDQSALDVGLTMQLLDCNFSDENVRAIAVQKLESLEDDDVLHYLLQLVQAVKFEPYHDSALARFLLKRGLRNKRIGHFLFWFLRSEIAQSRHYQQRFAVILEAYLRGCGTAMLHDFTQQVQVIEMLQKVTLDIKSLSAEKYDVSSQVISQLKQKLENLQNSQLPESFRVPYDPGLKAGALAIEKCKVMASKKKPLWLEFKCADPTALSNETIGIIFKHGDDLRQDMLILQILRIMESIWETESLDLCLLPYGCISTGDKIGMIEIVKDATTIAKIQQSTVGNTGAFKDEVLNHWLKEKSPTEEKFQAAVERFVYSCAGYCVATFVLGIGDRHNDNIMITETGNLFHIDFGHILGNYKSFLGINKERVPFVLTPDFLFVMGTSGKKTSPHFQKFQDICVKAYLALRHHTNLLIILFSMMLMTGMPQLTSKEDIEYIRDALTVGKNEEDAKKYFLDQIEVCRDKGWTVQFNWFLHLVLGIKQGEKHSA
In short: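 Radiometric SPA readout: […] bound to WGA beads after overnight shaking, IC50 derived from % activity of DMSO control. Reaction used human p110γ, 2 μM ATP, 20 μM PIP2, pH 6.7 MOPS buffer with MgCl2, DTT, CHAPS, 2% DMSO, room temperature.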

Row | Compound | IC50 ([1]; Homo sapiens) [nM] | IC50 [2] [nM] | IC50 [3] [nM] | IC50 [1] [nM]
1 | CC(=O)N[C@H]1CC[C@H](NS(=O)(=O)c2ccc(C)c(-c3cnc4c(N)ncnn34)c2)CC1 [Example 74, N-[trans-4-({[3-(4-Aminoimidazo[2,1-f][1,2,4]triazin-7-yl)-4-methylphenyl]sulfonyl}amino)cyclohexyl]acetamide] | > 1000 | 500 to 2000 | < 100 | –
2 | Cc1cc(-c2cn3c(-c4cc(S(=O)(=O)N[C@H]5CC[C@H](O)CC5)ccc4C)cnc3c(N)n2)on1 [Example 75, 3-[8-Amino-6-(3-methylisoxazol-5-yl)imidazo[1,2-a]pyrazin-3-yl]-N-(trans-4-hydroxycyclohexyl)-4-methylbenzenesulfonamide] | 100 to 500 | < 100 | < 100 | –
3 | Cc1ccc(S(=O)(=O)N[C@H]2CC[C@H](O)CC2)cc1-c1cnc2c(N)nc(-c3cnn(CC(F)(F)F)c3)cn12 [Example 76, 3-{8-amino-6-[1-(2,2,2-trifluoroethyl)-1H-pyrazol-4-yl]imidazo[1,2-a]pyrazin-3-yl}-N-(trans-4-hydroxycyclohexyl)-4-methylbenzenesulfonamide] | 100 to 500 | 100 to 500 | < 100 | –
4 | Cc1ccc(S(=O)(=O)N[C@H]2CC[C@H](O)CC2)cc1-c1cnc2c(N)nc(-c3c(C)noc3C)cn12 [Example 77, 3-[8-amino-6-(3,5-dimethylisoxazol-4-yl)imidazo[1,2-a]pyrazin-3-yl]-N-(trans-4-hydroxycyclohexyl)-4-methylbenzenesulfonamide] | 100 to 500 | 100 to 500 | < 100 | –
5 | Cc1ccc(S(=O)(=O)N[C@H]2CC[C@H](O)CC2)cc1-c1cnc2c(N)nc(-c3cnn(C(C)(C)C#N)c3)cn12 [Example 78, 3-{8-amino-6-[1-(1-cyano-1-methylethyl)-1H-pyrazol-4-yl]imidazo[1,2-a]pyrazin-3-yl}-N-(trans-4-hydroxycyclohexyl)-4-methylbenzenesulfonamide] | 500 to 1000 | 100 to 500 | < 100 | –
6 | Cc1ccc(S(=O)(=O)N[C@H]2CC[C@H](O)CC2)cc1-c1cnc2c(N)nc(-c3ccc(C(=O)N(C)C)cc3F)cn12 [Example 79, 4-[8-Amino-3-(5-{[(trans-4-hydroxycyclohexyl)amino]sulfonyl}-2-methylphenyl)imidazo[1,2-a]pyrazin-6-yl]-3-fluoro-N,N-dimethylbenzamide trifluoroacetate] | 100 to 500 | < 100 | < 100 | –
7 | Cc1ccc(S(=O)(=O)N[C@H]2CC[C@H](O)CC2)cc1-c1cnc2c(N)nc(-c3cc(C(F)(F)F)nn3C)cn12 [Example 80, 3-{8-Amino-6-[1-methyl-3-(trifluoromethyl)-1H-pyrazol-5-yl]imidazo[1,2-a]pyrazin-3-yl}-N-(trans-4-hydroxycyclohexyl)-4-methylbenzenesulfonamide] | 100 to 500 | 100 to 500 | < 100 | –
8 | Cc1ccc(S(=O)(=O)N[C@H]2CC[C@H](O)CC2)cc1-c1cnc2c(N)nc(-c3ccncc3F)cn12 [Example 81, 3-[8-Amino-6-(3-fluoropyridin-4-yl)imidazo[1,2-a]pyrazin-3-yl]-N-(trans-4-hydroxycyclohexyl)-4-methylbenzenesulfonamide] | < 100 | < 100 | < 100 | –
9 | Cc1ccc(S(=O)(=O)N[C@H]2CC[C@H](O)CC2)cc1-c1cnc2c(N)nc(-c3ccc(C(C)O)cc3F)cn12 (stereo partly drawn) [Example 82, 3-(8-Amino-6-(2-fluoro-4-(1-hydroxyethyl)phenyl)imidazo[1,2-a]pyrazin-3-yl)-N-(trans-4-hydroxycyclohexyl)-4-methylbenzenesulfonamide] | < 100 | < 100 | < 100 | –
10 | COc1cc(C)c(-c2cnc3c(N)nccn23)cc1S(=O)(=O)N[C@H]1CC[C@H](O)CC1 [Example 83, 5-(8-aminoimidazo[1,2-a]pyrazin-3-yl)-N-(trans-4-hydroxycyclohexyl)-2-methoxy-4-methylbenzenesulfonamide] | > 1000 | < 100 | 100 to 500 | –
11 | Cc1ccc(S(=O)(=O)NC2CCC(F)(F)CC2)cc1-c1cnc2c(N)nccn12 [Example 84, 3-(8-amionimidazo[1,2-a]pyrazin-3-yl)-N-(4,4-difluorocyclohexyl)-4-methylbenzenesulfonamide] | – | 500 to 2000 | < 100 | > 1000
12 | Cc1ccc(S(=O)(=O)NC2CCC(C)(O)CC2)cc1-c1cnc2c(N)nccn12 (stereo not drawn) [Example 85, 3-(8-aminoimidazo[1,2-a]pyrazin-3-yl)-N-(trans-4-hydroxy-4-methylcyclohexyl)-4-methylbenzenesulfonamide] | – | 500 to 2000 | < 100 | 100 to 500
13 | Cc1ccc(S(=O)(=O)NCC2CCN(C(=O)C3CC3)CC2)cc1-c1cnc2c(N)nccn12 [Example 86, 3-(8-aminoimidazo[1,2-a]pyrazin-3-yl)-N-((1-(cyclopropanecarbonyl)piperidin-4-yl)methyl)-4-methylbenzenesulfonamide] | – | 500 to 2000 | < 100 | > 1000
14 | Cc1ccc(S(=O)(=O)N[C@H]2C[C@](C)(C#N)C2)cc1-c1cnc2c(N)ncnn12 [Example 87, 3-(4-Aminoimidazo[1,2-f][1,2,4]triazin-7-yl)-N-((1r,3r)-3-cyano-3-methylcyclobutyl)-4-methylbenzenesulfonamide trifluoroacetate salt] | – | 100 to 500 | < 100 | 100 to 500
15 | COC(=O)C12CC(NS(=O)(=O)c3ccc(C)c(-c4cnc5c(N)ncnn45)c3)(C1)C2 [Example 88, Methyl 3-(3-(4-aminoimidazo[1,2-f][1,2,4]triazin-7-yl)-4-methylphenylsulfonamido)bicyclo[1.1.1]pentane-1-carboxylate trifluoroacetate salt] | – | 100 to 500 | < 100 | < 100
16 | Cc1ccc(S(=O)(=O)N[C@H]2C[C@H](C#N)C2)cc1-c1cnc2c(N)ncnn12 [Example 89, 3-(4-Aminoimidazo[1,2-f][1,2,4]triazin-7-yl)-N-((1r,3r)-3-cyanocyclobutyl)-4-methylbenzenesulfonamide trifluoroacetate salt] | – | 100 to 500 | < 100 | < 100
17 | Cc1ccc(S(=O)(=O)NC23CCC(C#N)(CC2)C3)cc1-c1cnc2c(N)ncnn12 [Example 90, 3-(4-Aminoimidazo[1,2-f][1,2,4]triazin-7-yl)-N-(4-cyanobicyclo[2.2.1]heptan-1-yl)-4-methylbenzenesulfonamide trifluoroacetate salt] | – | 100 to 500 | < 100 | < 100
18 | Cc1ccc(S(=O)(=O)NC23CC(CC#N)(C2)C3)cc1-c1cnc2c(N)ncnn12 [Example 91, trifluoroacetate salt] | – | 100 to 500 | < 100 | 100 to 500
19 | Cc1ccc(S(=O)(=O)NC23CC(Cn4cccn4)(C2)C3)cc1-c1cnc2c(N)ncnn12 [Example 92, N-(3-((1H-pyrazol-1-yl)methyl)bicyclo[1.1.1]pentan-1-yl)-3-(4-aminoimidazo[1,2-f][1,2,4]triazin-7-yl)-4-methylbenzenesulfonamide trifluoroacetate salt] | – | 100 to 500 | < 100 | < 100
20 | Cc1ccc(S(=O)(=O)NC23CC(C(C)(C)O)(C2)C3)cc1-c1cnc2c(N)ncnn12 [Example 93, 3-(4-Aminoimidazo[1,2-f][1,2,4]triazin-7-yl)-N-(3-(2-hydroxypropan-2-yl)bicyclo[1.1.1]pentan-1-yl)-4-methylbenzenesulfonamide trifluoroacetate slt] | – | 100 to 500 | < 100 | 100 to 500
21 | Cc1noc(C23CC(NS(=O)(=O)c4ccc(C)c(-c5cnc6c(N)ncnn56)c4)(C2)C3)n1 [Example 94, 3-(4-Aminoimidazo[1,2-f][1,2,4]triazin-7-yl)-4-methyl-N-(3-(3-methyl-1,2,4-oxadiazol-5-yl)bicyclo[1.1.1]pentan-1-yl)benzenesulfonamide trifluoroacetate salt] | – | 100 to 500 | < 100 | 500 to 1000
22 | CC(=O)C12CC(NS(=O)(=O)c3ccc(C)c(-c4cnc5c(N)ncnn45)c3)(C1)C2 [Example 95, N-(3-Acetylbicyclo[1.1.1]pentan-1-yl)-3-(4-aminoimidazo[1,2-f][1,2,4]triazin-7-yl)-4-methylbenzenesulfonamide trifluoroacetate salt] | – | 100 to 500 | < 100 | 100 to 500
23 | Cc1ccc(S(=O)(=O)NC23CC(C(=O)N(C)C)(C2)C3)cc1-c1cnc2c(N)ncnn12 [Example 96, 3-(3-(4-Aminoimidazo[1,2-f][1,2,4]triazin-7-yl)-4-methylphenylsulfonamido)-N,N-dimethylbicyclo[1.1.1]pentane-1-carboxamide trifluoroacetate salt] | – | 100 to 500 | < 100 | > 1000
24 | Cc1ccc(S(=O)(=O)NC23CC(C(F)(F)F)(C2)C3)cc1-c1cnc2c(N)ncnn12 [Example 97, 3-(4-Aminoimidazo[1,2-f][1,2,4]triazin-7-yl)-4-methyl-N-(3-(trifluoromethyl)bicyclo[1.1.1]pentan-1-yl)benzenesulfonamide trifluoroacetate salt] | – | 100 to 500 | < 100 | 100 to 500
